Experimental data published in patent publication US10487045B2, “Adamantane derivative and use thereof” (TOHOKU UNIVERSITY, priority 2016, dated 2019).

Test system: APP23 mice
Test: Fear conditioning test in Alzheimer's disease model mice
Assay type: in vivo
Conditions: APP23 mice treated for two months
Excerpt: The fear conditioning test method is an analysis taking an advantage of mouse's preposition in favor of a dark place rather than a bright place. Day 1, a mouse is placed in a bright place. Since a mouse is fond of a dark place, the mouse enters a dark place (dark box). When an electrical stimulation is given to the mouse at this time, the mouse is surprised and returns to the bright place and never enters the dark place. Day 2, the mouse is placed in the bright place (the same place as on Day 1), and then, whether the mouse enters a dark place or not is observed for 5 minutes. If the mouse enters the dark place right away, it is determined that fear memory of the mouse declined. “Latency” is a time period (seconds) until the mouse placed in a bright place enters the dark plate (darkroom) on Day 2.

O=C(N[C@@H](c1ccccc1)[C@H]1[C@H]2C[C@@H]3C[C@](Cl)(C2)C[C@@]1(OC(=O)C(F)(F)F)C3)C(F)(F)F [TP-014, (1S,2R,3S,5S,7S)-5-chloro-2-((R)-phenyl(2,2,2-trifluoroacetamido)methyl)adamantan-1-yl 2,2,2-trifluoroacetate]
fear memory (latency, fear conditioning test): improvement effect
